# Data: patent US20190255086A1, “Compositions and Methods for Treating an Infection” (CMPD Licensing, LLC, priority 2015, published 2019)
# Legend:
# Neisseria meningitidis = assay: Expected efficacy of anti-bacterial agents against various bacteria (Tables 5 and 6); conditions: Gram: neg
# Moraxella catarrhalis = assay: as above; conditions: Gram: neg
# Diphtheroids = assay: as above; conditions: Gram: pos
# Peptostreptococcus = assay: as above; conditions: Gram: pos
# Pseudomonas fluorescens = assay: as above; conditions: Gram: neg
# [1] = tested on: Methicillin resistant staph aureus (MRSA); assay: as above; conditions: Gram: pos
# Corynebacterium jeikeium = assay: as above; conditions: Gram: pos
# Streptococcus pneumoniae = assay: as above; conditions: Gram: pos
# Escherichia coli = assay: as above; conditions: Gram: neg
# Serratia marcescens = assay: as above; conditions: Gram: neg
# Brucella species = conditions: expected efficacy; Brucella species; Gram: neg
# Pseudomonas aeruginosa = assay: Expected efficacy of anti-bacterial agents against various bacteria (Tables 5 and 6); conditions: Gram: neg
# Chlamydia trachomatis = assay: as above; conditions: Gram: n/a
# Providencia rettgeri = assay: as above; conditions: Gram: neg
# Neisseria gonorrhoeae = assay: as above; conditions: Gram: neg
# Enterobacter sakazakii = assay: as above; conditions: Gram: neg
# Chlamydia psittaci = conditions: expected efficacy; Chlamydia psittaci; Gram: n/a
# Mycoplasma pneumoniae = assay: Expected efficacy of anti-bacterial agents against various bacteria (Tables 5 and 6); conditions: Gram: n/a
# [2] = tested on: Staphylococcus aureus (MSSA); assay: as above; conditions: Gram: pos
# Clostridium difficile = assay: as above; conditions: Gram: anaer
# [3] = tested on: Corynebacterium urealyticum; assay: as above; conditions: Gram: pos
# Vibrio cholerae = assay: as above; conditions: Gram: neg
# Chlamydia pneumoniae = assay: as above; conditions: Gram: n/a
# Enterobacter cloacae = assay: as above; conditions: Gram: neg
# [4] = tested on: Haemophilus parainfluenzae; assay: as above; conditions: Gram: neg
# Bordetella pertussis = assay: as above; conditions: Gram: neg
# Klebsiella pneumoniae = assay: as above; conditions: Gram: neg
# Klebsiella oxytoca = assay: as above; conditions: Gram: neg
# Enterococcus faecalis = assay: as above; conditions: Gram: pos
# Bacteroides fragilis = assay: as above; conditions: Gram: anaer
# [5] = tested on: Viridans group streptococci; assay: as above; conditions: Gram: pos
# Streptococcus agalactiae = assay: as above; conditions: Gram: pos
# [6] = tested on: Klebsiella (Calymmatobacterium) granulomatis; assay: as above; conditions: Gram: neg
# Proteus vulgaris = assay: as above; conditions: Gram: neg
# Proteus mirabilis = assay: as above; conditions: Gram: neg
# Enterococcus faecium = assay: as above; conditions: Gram: pos
# Streptococcus pyogenes = assay: as above; conditions: Gram: pos
# Legionella pneumophila = conditions: expected efficacy; Legionella pneumophila; Gram: neg
# Enterobacter aerogenes = assay: Expected efficacy of anti-bacterial agents against various bacteria (Tables 5 and 6); conditions: Gram: neg
# Providencia stuartii = assay: as above; conditions: Gram: neg
# [7] = tested on: Staphylococcus epidermidis; assay: as above; conditions: Gram: pos
substance,measurement,setting,value
Colistimethate,Efficacy of various antibiotic agents,Neisseria meningitidis,no
same,Efficacy of various antibiotic agents,Moraxella catarrhalis,no
same,Efficacy of various antibiotic agents,Diphtheroids,no
same,Efficacy of various antibiotic agents,Peptostreptococcus,no
same,Efficacy of various antibiotic agents,Pseudomonas fluorescens,yes
same,Efficacy of various antibiotic agents,[1],no
same,Efficacy of various antibiotic agents,Corynebacterium jeikeium,no
same,Efficacy of various antibiotic agents,Streptococcus pneumoniae,no
same,Efficacy of various antibiotic agents,Escherichia coli,yes
same,Efficacy of various antibiotic agents,Serratia marcescens,no
same,Efficacy of various antibiotic agents,Brucella species,no
same,Efficacy of various antibiotic agents,Pseudomonas aeruginosa,yes
same,Efficacy of various antibiotic agents,Chlamydia trachomatis,no
same,Efficacy of various antibiotic agents,Providencia rettgeri,no
same,Efficacy of various antibiotic agents,Neisseria gonorrhoeae,no
same,Efficacy of various antibiotic agents,Enterobacter sakazakii,yes
same,Efficacy of various antibiotic agents,Chlamydia psittaci,no
same,Efficacy of various antibiotic agents,Mycoplasma pneumoniae,no
same,Efficacy of various antibiotic agents,[2],no
same,Efficacy of various antibiotic agents,Clostridium difficile,no
same,Efficacy of various antibiotic agents,[3],no
same,Efficacy of various antibiotic agents,Vibrio cholerae,no
same,Efficacy of various antibiotic agents,Chlamydia pneumoniae,no
same,Efficacy of various antibiotic agents,Enterobacter cloacae,yes
same,Efficacy of various antibiotic agents,[4],no
same,Efficacy of various antibiotic agents,Bordetella pertussis,no
same,Efficacy of various antibiotic agents,Klebsiella pneumoniae,yes
same,Efficacy of various antibiotic agents,Klebsiella oxytoca,yes
same,Efficacy of various antibiotic agents,Enterococcus faecalis,no
same,Efficacy of various antibiotic agents,Bacteroides fragilis,no
same,Efficacy of various antibiotic agents,[5],no
same,Efficacy of various antibiotic agents,Streptococcus agalactiae,no
same,Efficacy of various antibiotic agents,[6],yes
same,Efficacy of various antibiotic agents,Proteus vulgaris,no
same,Efficacy of various antibiotic agents,Proteus mirabilis,no
same,Efficacy of various antibiotic agents,Enterococcus faecium,no
same,Efficacy of various antibiotic agents,Streptococcus pyogenes,no
same,Efficacy of various antibiotic agents,Legionella pneumophila,no
same,Efficacy of various antibiotic agents,Enterobacter aerogenes,yes
same,Efficacy of various antibiotic agents,Providencia stuartii,no
same,Efficacy of various antibiotic agents,[7],no
